“Also recorded” adds a separate entry of the source. Where no end group is shown, it is not given here.
Columns and labels:
E. coli TOP10 = assay: Deep mutational scanning, site-saturation Bac7_1-23 library, intracellular self-screening with NGS; type: cell-based; conditions: intracellular expression
Protocol: A focused strategy was pursued to generate diversity at positions 5, 18, 19, and 20 in the Bac7_1-23 peptide. […] Degeneration was introduced by using the QuikChange technique, amplifying the pBAD plasmid containing the Bac7_1-23 gene using a mixture of 20 oligonucleotides (Additional file 1: Table S1) at a final concentration of 0.3 μM and Phusion® High-Fidelity PCR Master Mix in HF buffer. The amplification was performed using 20 cycles of 98°C for 10 s, 60°C for 15 s, and 72°C for 10 s. The PCR product was treated with the enzyme Dpn1 to remove the template plasmid and subsequently purified. The purified product was used to transform 20 μl of CloneCatcher™ Gold DH5G Electrocompetent E. coli (Genlantis, Burlington, USA) cells using electroporation.
To assess the antimicrobial activity of multiple peptides in parallel when expressed intracellularly in E. coli TOP10, previously prepared aliquots containing E. coli plasmid libraries created by either random mutagenesis or site-saturation mutagenesis were used. For both approaches, three aliquots containing approximately 500 million cells each of E. coli TOP10 harboring peptide-encoding DNA sequences on the pBAD plasmid were thawed and added to three 1-l baffled shake flasks containing 100 ml of LB medium + 100 μg ml^−1 carbenicillin. The cultures were grown for roughly 7 h at 37°C.

CD-1 mice = assay: Maximum tolerated dose / in vivo toxicity; design: species or system mouse
Protocol: CD-1 mice (7 weeks old, 27–28 g female) were used (Charles River, France). These animals were housed for a week of acclimation period before the experiment in a protected area in the ‘Centre de Zootechnie de l’Université de Bourgogne’ (Biosafety level 2 facility) and fed ad libitum according to the current recommendations by the European Institute of Health. Housing took place in rooms where a 12-h/12 h light/dark cycle is applied, the temperature ranges from 18 to 21°C and the relative humidity from 45 to 65%. The animal facility is authorized by the French authorities (Agreement N° C 21 464 04 EA). […]
For animal experiments, Bac7PS was synthesized at Genscript as acetate salt and with a purity of 92%. […] First, the maximum tolerated dose (MTD) for the peptide was determined by testing different peptide doses in 8 groups with 5 animals per group. The peptide solution was administered once by intraperitoneal (IP) injection with a volume of between 94 and 240 μl (depending on the weight of the animal and the dosage) and the animals were monitored for 2 h following the injection, then 6 to 8 h later, and then once or twice a day, depending on the clinical status, up to 5 days post-injection. […] As endpoint, the wellbeing and survival rate, on a twice daily based evaluation for up to 3 days, was monitored.

RRIRIRPPRLPRPRPRPYFMPRP [Bac7PS]
antimicrobial activity in the library (E. coli TOP10): the most active
tolerability of a second administration (CD-1 mice; 40 mg kg^−1 IP, repeated 4 h after first dosing): does not influence the survival of mice; also recorded: tolerated
maximal dose at which all CD-1 mice survived (CD-1 mice; intraperitoneal, 3 days, single administration, 5 animals per group): 50 mg/kg

From PMC9112550, “Optimization of the antimicrobial peptide Bac7 by deep mutational scanning” (BMC Biology, 2022)
